Values joined by “and” are separate entries in the source; they are usually repeats but may differ in a detail not shown here. Identical values can stand only once. Toxic doses and inconclusive results are not listed. The calls were made as follows: active = survival T/C of 150% or more; inactive = T/C below 125% in these data.
Test system: CD2F1 mice, L1210 leukemia ip, survival T/C
Assay: NCI In Vivo Anticancer Drug Screen. Data for tumor model L1210 Leukemia (intraperitoneal) in CD2F1 (CDF1) mice
Settings: higher = longer survival
Method in brief: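 Compound-dosed mice with transplantable tumor versus matched vehicle controls; endpoint ratio T/C reported.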

[1] = endpoint: mean survival time, dose: 12.5 mg/kg/injection, schedule: Q04DX003 (ip), vehicle: saline with Tween-80
[2] = endpoint: mean survival time, dose: 25.0 mg/kg/injection, schedule: Q04DX003 (ip), vehicle: saline with Tween-80
[3] = endpoint: mean survival time, dose: 50.0 mg/kg/injection, schedule: Q04DX003 (ip), vehicle: saline with Tween-80
[4] = endpoint: mean survival time, dose: 100.0 mg/kg/injection, schedule: Q01DX001 (ip), vehicle: saline
[5] = endpoint: mean survival time, dose: 200.0 mg/kg/injection, schedule: Q01DX001 (ip), vehicle: saline
[6] = endpoint: mean survival time, dose: 400.0 mg/kg/injection, schedule: Q01DX001 (ip), vehicle: saline
[7] = endpoint: mean survival time, dose: 25.0 mg/kg/injection, schedule: Q01DX009 (ip), vehicle: saline with Tween-80
[8] = endpoint: mean survival time, dose: 50.0 mg/kg/injection, schedule: Q01DX009 (ip), vehicle: saline with Tween-80
[9] = endpoint: mean survival time, dose: 100.0 mg/kg/injection, schedule: Q01DX009 (ip), vehicle: saline with Tween-80
[10] = endpoint: mean survival time, dose: 100.0 mg/kg/injection, schedule: Q04DX003 (ip), vehicle: saline with Tween-80
[11] = endpoint: mean survival time, dose: 200.0 mg/kg/injection, schedule: Q04DX003 (ip), vehicle: saline with Tween-80
[12] = endpoint: mean survival time, dose: 400.0 mg/kg/injection, schedule: Q04DX003 (ip), vehicle: saline with Tween-80
[13] = endpoint: mean survival time, dose: 100.0 mg/kg/injection, schedule: Q01DX001 (ip), vehicle: saline with Tween-80
[14] = endpoint: mean survival time, dose: 200.0 mg/kg/injection, schedule: Q01DX001 (ip), vehicle: saline with Tween-80
[15] = endpoint: mean survival time, dose: 400.0 mg/kg/injection, schedule: Q01DX001 (ip), vehicle: saline with Tween-80
[16] = endpoint: mean survival time, dose: 400.0 mg/kg/injection, schedule: Q01DX009 (ip), vehicle: saline with Tween-80
[17] = endpoint: mean survival time, dose: 200.0 mg/kg/injection, schedule: Q01DX009 (ip), vehicle: saline with Tween-80

Measured: T/C

CCC12C=CCN3CCC4(c5cc(C6c7[nH]c8ccccc8c7CCN7CCCCC67)c(OC)cc5N(C)C4C(O)(C(=O)OC)C1OC(C)=O)C32 (centres undefined)
inactive: endpoint: mean survival time, dose: 0.06 mg/kg/injection, schedule: Q01DX009 (ip), vehicle: other 93 % of control | endpoint: mean survival time, dose: 0.13 mg/kg/injection, schedule: Q01DX009 (ip), vehicle: other 93 % of control | endpoint: mean survival time, dose: 0.25 mg/kg/injection, schedule: Q01DX009 (ip), vehicle: other 92 % of control | endpoint: mean survival time, dose: 0.5 mg/kg/injection, schedule: Q01DX009 (ip), vehicle: other 95 % of control | endpoint: mean survival time, dose: 1.0 mg/kg/injection, schedule: Q01DX009 (ip), vehicle: other 90 % of control | endpoint: mean survival time, dose: 2.0 mg/kg/injection, schedule: Q01DX009 (ip), vehicle: other 93 % of control | endpoint: mean survival time, dose: 4.0 mg/kg/injection, schedule: Q01DX009 (ip), vehicle: other 93 % of control

C=CCOc1ccncc1
inactive: endpoint: mean survival time, dose: 12.5 mg/kg/injection, schedule: Q01DX009 (ip), vehicle: saline sonified 101 % of control | [1] 93 % of control | endpoint: mean survival time, dose: 25.0 mg/kg/injection, schedule: Q01DX009 (ip), vehicle: saline sonified 100 % of control | [2] 93 % of control | endpoint: mean survival time, dose: 50.0 mg/kg/injection, schedule: Q01DX009 (ip), vehicle: saline sonified 101 % of control | [3] 93 % of control

CS(=O)(=O)[O-].CS(=O)(=O)[O-].NC1CCCCC1N.[Pt+4] (centres undefined)
inactive: endpoint: mean survival time, dose: 0.16 mg/kg/injection, schedule: Q04DX003 (ip), vehicle: other 124 % of control | endpoint: mean survival time, dose: 0.62 mg/kg/injection, schedule: Q01DX009 (ip), vehicle: dextrose 119 % of control | endpoint: mean survival time, dose: 5.0 mg/kg/injection, schedule: Q01DX009 (ip), vehicle: dextrose 93 % of control

Nc1ncnc2c1ncn2C1OCC(O)C(O)C1O (centres undefined)
inactive: endpoint: mean survival time, dose: 50.0 mg/kg/injection, schedule: Q01DX001 (ip), vehicle: saline 101 % of control | [4] 102 % of control | [5] 101 % of control | [6] 98 % of control

O=C(O)c1c(Cl)c(Cl)c(Cl)c(Cl)c1C(=O)O
inactive: endpoint: mean survival time, dose: 100.0 mg/kg/injection, schedule: Q04DX002 (ip), vehicle: saline with Tween-80 97 % of control | endpoint: mean survival time, dose: 200.0 mg/kg/injection, schedule: Q04DX002 (ip), vehicle: saline with Tween-80 101 % of control | endpoint: mean survival time, dose: 400.0 mg/kg/injection, schedule: Q04DX002 (ip), vehicle: saline with Tween-80 105 % of control

CN(C)CCCN1c2ccc(O)cc2Sc2ccc(Cl)cc21
inactive: [7] 90 % of control | [8] 96 % of control | [9] 107 % of control

COc1ccc2ccccc2c1/C=N/N1CCCCC1
inactive: [10] 102 % of control | [11] 102 % of control | [12] 96 % of control

COC1=CC2=C3[C@H](Cc4cc5c(c(c4)Oc4ccc(cc4)C[C@H]4c6cc7c(cc6CCN4C)OCC3(O7)C1=O)OCO5)N(C)CC2 (some centres undefined)
inactive: [3] 96 % of control | [10] 98 % of control | [11] 96 % of control

O=C(Nc1ccc(NC(=O)c2ccccc2)c(Sc2ccccc2)c1Sc1ccccc1)c1ccccc1
inactive: [13] 89 % of control | [14] 89 % of control | [15] 86 % of control

C/C=C/C=C(\CC)C(=O)OCC
inactive: [13] 97 % of control | [14] 97 % of control | [15] 86 % of control

COc1ccc(N=C(N)N=C(N)N)cc1
inactive: [7] 102 % of control | [8] 96 % of control | [9] 106 % of control

COC(=O)CCC(=O)C=[N+]=[N-]
inactive: endpoint: mean survival time, dose: 1.5 mg/kg/injection, schedule: Q01DX009 (ip), vehicle: other 94 % of control | endpoint: mean survival time, dose: 3.1 mg/kg/injection, schedule: Q01DX009 (ip), vehicle: other 94 % of control | endpoint: mean survival time, dose: 6.2 mg/kg/injection, schedule: Q01DX009 (ip), vehicle: other 91 % of control | endpoint: mean survival time, dose: 12.5 mg/kg/injection, schedule: Q01DX009 (ip), vehicle: other 91 % of control

NC(N)=N/N=C\c1ccc(/C=N/N=C(N)N)cc1
inactive: endpoint: mean survival time, dose: 3.0 mg/kg/injection, schedule: Q01DX010 (ip), vehicle: saline 102 % of control | endpoint: mean survival time, dose: 5.0 mg/kg/injection, schedule: Q01DX010 (ip), vehicle: saline 106 % of control | endpoint: mean survival time, dose: 8.0 mg/kg/injection, schedule: Q01DX010 (ip), vehicle: saline 110 % of control | endpoint: mean survival time, dose: 12.0 mg/kg/injection, schedule: Q01DX010 (ip), vehicle: saline 112 % of control

COc1ccc([I+]c2ccc(OC)cc2)cc1
inactive: endpoint: mean survival time, dose: 1.5 mg/kg/injection, schedule: Q01DX009 (ip), vehicle: saline with Tween-80 101 % of control | endpoint: mean survival time, dose: 3.0 mg/kg/injection, schedule: Q01DX009 (ip), vehicle: saline with Tween-80 104 % of control | endpoint: mean survival time, dose: 6.0 mg/kg/injection, schedule: Q01DX009 (ip), vehicle: saline with Tween-80 107 % of control | [1] 97 % of control | [2] 93 % of control | [3] 93 % of control

CCCCCCCCCCCCCCCCCS(=O)S(=O)O (centres undefined)
inactive: [10] 98 % of control | [11] 94 % of control | [12] 93 % of control

O=C(CI)NCc1cn(C2CC(O)C(CO)O2)c(=O)[nH]c1=O (centres undefined)
inactive: endpoint: mean survival time, dose: 4.0 mg/kg/injection, schedule: Q01DX005 (ip), vehicle: water 106 % of control | endpoint: mean survival time, dose: 8.0 mg/kg/injection, schedule: Q01DX005 (ip), vehicle: water 114 % of control | endpoint: mean survival time, dose: 16.0 mg/kg/injection, schedule: Q01DX005 (ip), vehicle: water 106 % of control | endpoint: mean survival time, dose: 32.0 mg/kg/injection, schedule: Q01DX005 (ip), vehicle: water 111 % of control | endpoint: mean survival time, dose: 64.0 mg/kg/injection, schedule: Q01DX005 (ip), vehicle: water 114 % of control

Cc1cc(C)c(S(=O)(=O)n2ccnc2)c(C)c1
inactive: endpoint: mean survival time, dose: 50.0 mg/kg/injection, schedule: Q01DX009 (ip), vehicle: Klucel (hydroxypropylcellulose) (HPC) 94 % of control | endpoint: mean survival time, dose: 100.0 mg/kg/injection, schedule: Q01DX009 (ip), vehicle: Klucel (hydroxypropylcellulose) (HPC) 94 % of control | endpoint: mean survival time, dose: 200.0 mg/kg/injection, schedule: Q01DX009 (ip), vehicle: Klucel (hydroxypropylcellulose) (HPC) 105 % of control

CCOC(=O)C(C(=O)OCC)c1cc(NC(=O)c2ccccc2)ccc1NC(=O)c1ccccc1
inactive: [9] 87 % of control | [16] 93 % of control

BrC1CCC([Si](c2ccccc2)(c2ccccc2)c2ccccc2)CC1 (centres undefined)
inactive: [10] 87 % of control | [11] 93 % of control | [12] 93 % of control

O=C(O)/C=C/C(=O)NCCc1c[nH]c2ccccc12
inactive: [9] 98 % of control | [10] 93 % of control | [17] 95 % of control | [11] 95 % of control | [16] 95 % of control | [12] 95 % of control

CCOC(=O)c1cn[nH]c1/N=N/N(C)C
inactive: endpoint: mean survival time, dose: 100.0 mg/kg/injection, schedule: Q01DX001 (ip), vehicle: carboxymethylcellulose (CMC) 115 % of control

O=C(Nc1cccc2ccccc12)N(c1ccccc1)c1ccccc1
inactive: [4] 105 % of control | [5] 96 % of control | [6] 94 % of control

O=C1NC(=O)/C(=C/C=C/c2ccccc2)S1
inactive: endpoint: mean survival time, dose: 12.5 mg/kg/injection, schedule: Q01DX009 (ip), vehicle: saline with Tween-80 94 % of control and 101 % of control | [7] 95 % of control and 109 % of control | [8] 97 % of control and 101 % of control | [9] 98 % of control and 101 % of control | [17] 95 % of control and 103 % of control | [16] 104 % of control

Cc1cc2c(ccc3c2ccc2cccc(C)c23)c2ccccc12
inactive: endpoint: mean survival time, dose: 75.0 mg/kg/injection, schedule: Q01DX001 (ip), vehicle: saline 95 % of control | endpoint: mean survival time, dose: 150.0 mg/kg/injection, schedule: Q01DX001 (ip), vehicle: saline 88 % of control | endpoint: mean survival time, dose: 300.0 mg/kg/injection, schedule: Q01DX001 (ip), vehicle: saline 94 % of control

CCC1(CC)C=CC(Br)CC1(CC)CC (centres undefined)
inactive: [9] 101 % of control | [17] 113 % of control | [16] 98 % of control

OC1CC2C=CC1CC2 (centres undefined)
inactive: endpoint: mean survival time, dose: 100.0 mg/kg/injection, schedule: Q01DX009 (ip), vehicle: saline 97 % of control | endpoint: mean survival time, dose: 200.0 mg/kg/injection, schedule: Q01DX009 (ip), vehicle: saline 94 % of control | endpoint: mean survival time, dose: 400.0 mg/kg/injection, schedule: Q01DX009 (ip), vehicle: saline 100 % of control

O=C(O)c1cccc2ccc(Br)cc12
inactive: endpoint: median survival time, dose: 50.0 mg/kg/injection, schedule: Q04DX002 (ip), vehicle: saline with Tween-80 100 % of control | endpoint: median survival time, dose: 100.0 mg/kg/injection, schedule: Q04DX002 (ip), vehicle: saline with Tween-80 100 % of control | endpoint: median survival time, dose: 200.0 mg/kg/injection, schedule: Q04DX002 (ip), vehicle: saline with Tween-80 111 % of control
